Reference: patent US20100287638A1, “NEURAL TUMOR STEM CELLS AND METHODS OF USE THEREOF” (The Hospital for Sick Children, priority 2007, published 2010)
“Also recorded” adds a separate entry of the source. Read-outs that look alike come from different tables or passages of the source.

Experiments:
[1] = test system: GNS cell lines G144, G166, and G179; format: cell-based; conditions: 10 μM, two days
fetal NS cells = test: Validation with compounds from an independent supplier, fetal NS cells; format: cell-based, human; conditions: 10 μM, 2 days
Description: (§1) Here, selected compounds from an independent source were applied (2 μM for Tegaserod, 10 μM for all others) to G179 (left), HS 27 (middle) or fetal NS (right).
(§2) We carried out two fully independent screens using G144, G166, and G179, as well as a human fibroblast cell line (HS27). […] We chose Glioma NS cell lines to validate several of the drugs, from each class, using compounds obtained from an independent supplier (FIG. 18D).
(§3) For the drug screen we used the IncucyteHD system (Essen Instruments, USA), which enables simultaneously monitoring of six 96-well microplates. GNS cell lines were plated at 10-20% confluence on 96 well plates (Iwaki) coated with laminin (10 μg/ml for 3 hours). The NCC NIH Chemical Compounds library (http://www.nihclinicalcollection.com/) was added to the plates at a final concentration of 10 μM per compound per well (DMSO 0.1%). Images were captured before and after the addition of the library every half hour for 2.5 days in an automated manner using the Incucyte HD device (Essen Instruments, USA). Relative increase in cell number values were generated for every well using confluence readings obtained at each time-point relative to the starting confluence. For every cell line (G144, G166, G179, and HS27) two independent screens were run. HS27 is a human foreskin fibroblast line (American Type Culture Collection). […] Every well associated with a reduction in cell number within the 5* percentile in at least 3 independent screens was visually inspected.

tumor lines (GNS cells) = test: Validation with compounds from an independent supplier, tumor lines; format: cell-based, human; conditions: 10 μM, 2 days
Description: as §1, §2, §3

fibroblast cells (HS27) = test: Validation with compounds from an independent supplier, fibroblasts; format: cell-based, human; conditions: 10 μM, 2 days
Description: as §1, §2, §3

[2] = test system: human fibroblast cell line (HS27); test: Live-cell imaging (IncucyteHD) chemical screen on fibroblast line; format: cell-based; conditions: 10 μM, two days
Description: as §2, §3

GNS cells [3] = test: TUNEL and caspase staining of treated cells; format: cell-based, human; conditions: treated versus untreated cells
Source text: FIG. 18E is a set of photomicrographs of cells either untreated or treated with indatraline and stained for TUNEL and caspase.

GNS cells [4] = test: GNS cell expansion culture; format: cell-based, human
Description: GNS cell expansion was carried out as described previously for human foetal NS cells (Sun et al., (2008) Mol Cell Neurosci 38, 245-258). Tissue culture flasks were pre-treated with Laminin, 10 μg/ml in PBS, (Sigma), for at least 3 hrs at 37° C. […] GNS cells were routinely grown to confluence, dissociated using Accutase (Sigma), and then split 1:3 to 1:5. Media was replaced with fresh media every 3-5 days. For all routine analysis we typically worked with cells between passage 10 and 20. For freezing, we re-suspended cell pellets in 0.5 ml of 10% DMSO/Media and placed in a −80° C. freezer. For long-term storage, liquid nitrogen was used. […] Fetal NS cells CB541 and CB660 are described by Sun et al., 2008, supra), while hf240, hf286, and hf289 (used in the microarrays) were isolated using similar techniques.

G166 cells = test: Astrocyte differentiation on BMP-4 exposure, G166; format: cell-based, human; conditions: BMP-4 treatment
Description: (§4) To determine whether GNS cells could respond to inductive signals and generate astrocytes, we exposed cells to BMP-4 or serum. […] This response is similar to that of human fetal NS cells (Sun et al., (2008) Mol Cell Neurosci 38, 245-258). Similar results were seen using serum treatment. […] Thus, while GNS cells retain a capacity to differentiate, the efficiency and lineage choice vary dramatically between each line.
(§5) All differentiation was carried out on laminin-coated plastic, either in 4-well plates (˜0.5-1×10^5 cells/well) (Nunc), or for time-lapse movies using 24-well Imagelock microplates (Essen Instruments). For oligodendrocytes and neuronal differentiation we used the same basal media but lacking EGF or FGF-2 (i.e., growth factor withdrawal). For astrocyte differentiation, we supplemented basal media with either BMP at 10 ng/ml (R and D systems), or 1% serum (Sigma). In each case, cells were washed twice with PBS or minimal media before adding the final differentiation media. Samples were processed for immunocytochemistry, typically 7-10 days later.
(§6) Cells w ere fixed in 4% PFA for 10 min and then washed with PBS+0.1% TritonX-100 (PBST). Blocking was carried out using 1% goat serum for 30 mins. […] Images were acquired using a Leica DMI400B inverted fluorescence microscope linked to a DFC340FX camera.

G144 cells = test: Astrocyte differentiation on BMP-4 exposure, G144; format: cell-based, human; conditions: BMP-4 10 ng/ml, 7 days
Description: as §4, §5, §6

G179 cells = test: Astrocyte differentiation on BMP-4 exposure, G179; format: cell-based, human; conditions: BMP-4 10 ng/ml, 7 days
Description: as §4, §5, §6

Molecule: c1ccc2c(c1)Nc1ccccc1S2 [10H-phenothiazine]
- killing of / effect on all GNS cell lines [1]: killed all GNS cell lines

Molecule: CN1CCN(c2nc3cc(C(F)(F)F)ccc3n3cccc23)CC1.O=C(O)/C=C\C(=O)O.O=C(O)/C=C\C(=O)O [CGS 12066B]
- killing of / effect on all GNS cell lines [1]: killed all GNS cell lines

Molecule: C[C@@H]1CN(CCCn2c3ccccc3c3ccccc32)C[C@H](C)N1 [Rimcazole]
- killing of / effect on all GNS cell lines [1]: killed all GNS cell lines
- cell death in fetal NS cells (fetal NS cells): cell death
- cell death in tumor lines (tumor lines (GNS cells)): cell death
- effect on fibroblast cells (fibroblast cells (HS27)): less striking or no effect

Molecule: CN1CCN(CCCN2c3ccccc3Sc3ccc(C(F)(F)F)cc32)CC1 [Trifluoperazine]
- killing of / effect on all GNS cell lines [1]: killed all GNS cell lines

Molecule: CNC1CC(c2ccc(Cl)c(Cl)c2)c2ccccc21 (stereo not drawn) [indatraline]
- killing of / effect on all GNS cell lines [1]: killed all GNS cell lines
- killing of / effect on all GNS cell lines ([1]; listed as Indatraline): affected all GNS cells
- cell death in fetal NS cells (fetal NS cells): cell death
- effect on fibroblasts [2]: no effect
- cell death in tumor lines (tumor lines (GNS cells)): cell death
- effect on fibroblast cells (fibroblast cells (HS27)): less striking or no effect
- apoptotic cell death (TUNEL and caspase staining) (GNS cells [3]): dying by an apoptotic pathway; also recorded: increase in TUNEL and caspase staining

Molecule: Fc1ccc([C@@H]2CCNC[C@H]2COc2ccc3c(c2)OCO3)cc1 [paroxetine]
- killing of / effect on all GNS cell lines [1]: killed all GNS cell lines
- killing of / effect on all GNS cell lines ([1]; listed as Paroxetine): affected all GNS cells
- effect on fibroblasts [2]: no effect

Molecule: CN[C@H]1CC[C@@H](c2ccc(Cl)c(Cl)c2)c2ccccc21 [sertraline]
- cell death in fetal NS cells (fetal NS cells): cell death
- cell death in tumor lines (tumor lines (GNS cells)): cell death
- effect on fibroblast cells (fibroblast cells (HS27)): less striking or no effect

Molecule: [H]/N=C(/NCCCCC)N/N=C/c1c[nH]c2ccc(OC)cc12 [tegaserod]
- killing of / effect on all GNS cell lines [1]: killed all GNS cell lines

Molecule: LIF: the cytokine LIF (leukemia inhibitory factor)
- effect on the cells in expansion culture (GNS cells [4]): no apparent effect

B1: BMP-4: inductive signal added to basal media for astrocyte differentiation (R and D systems) (protein, UniProt P12644 293-408, looked up)
Bone morphogenetic protein 4: SPKHHSQRARKKNKNCRRHSLYVDFSDVGWNDWIVAPPGYQAFYCHGDCPFPLADHLNSTNHAIVQTLVNSVNSSIPKACCVPTELSAISMLYLDEYDKVVLKNYQEMVVEGCGCR
- differentiation into GFAP+ cells (G166 cells): did differentiate
- differentiation into GFAP+ cells (G166 cells; listed as BMP): could only be observed at low frequency
- differentiation into GFAP+ cells (G144 cells): majority of cells express high levels of GFAP; also recorded: efficiently differentiate into GFAP^+ cells
- differentiation into GFAP+ cells (G179 cells): majority of cells express high levels of GFAP; also recorded: efficiently differentiate into GFAP^+ cells
- differentiation into GFAP+ cells (G179 cells; listed as BMP): expressed high levels of GFAP
